# Earlier results, collected in publication PMC5641599 (Molecular Metabolism, 2017).
# Where two headings read alike, the source gives them in different places.
# How the values were obtained:
# [1] = tested on: MC4R variants; conditions: cited from earlier work
# [2] = tested on: MC4R variants; conditions: cited from earlier work; remark: listed apart in the source
substance,measurement,setting,value
NDP-MSH,cAMP Emax - Ligand no.3,"[1]; MC4R C40R, COS-7 cell line, ref Tarnow P, J Biol Chem, 2003",118.6 % of WT
same,cAMP Emax - Ligand no.3,"[1]; MC4R C40R, ref Rong R, Clin Endocrinol, 2006",87.0 % of WT
same,cAMP Emax - Ligand no.3,"[1]; MC4R C40Y, COS-7 cell line, ref Hughes DA, Hum Genet, 2009",103.0 % of WT
same,cAMP Emax - Ligand no.3,"[1]; MC4R D37G, ref Hughes DA, Hum Genet, 2009",83.0 % of WT
same,cAMP Emax - Ligand no.3,"[1]; MC4R F280AfsX12, ref Xiang Z, Biochemistry, 2006",0.0 % of WT
same,cAMP Emax - Ligand no.3,"[1]; MC4R I251WfsX34, ref Xiang Z, Biochemistry, 2010",0.0 % of WT
same,cAMP Emax - Ligand no.3,"[1]; MC4R L211MfsX6, HEK293, ref Ho G, J Biol Chem, 1999",0.0 % of WT
same,cAMP Emax - Ligand no.3,"[1]; MC4R L211MfsX6, ref Xiang Z, Biochemistry, 2006",0.0 % of WT
same,cAMP Emax - Ligand no.3,"[1]; MC4R Q43X, ref Alfieri A, Gene, 2010",0.0 % of WT
same,cAMP Emax - Ligand no.3,"[1]; MC4R Q307X, COS-7 cell line, ref Reinehr T, Obesity, 2009",0.0 % of WT
same,cAMP Emax - Ligand no.3,"[1]; MC4R Q307X, ref Santoro N, BMC Med Genet, 2009",0.0 % of WT
same,cAMP Emax - Ligand no.3,"[1]; MC4R R7C, COS-7 cell line, ref Hinney A, J Clin Endocrinol Metab, 2006",75.0 % of WT
same,cAMP Emax - Ligand no.3,"[1]; MC4R R7C, ref Fan ZC, J Cell Mol Med, 2009",102.0 % of WT
same,cAMP Emax - Ligand no.3,"[1]; MC4R S19AfsX34, ref Alfieri A, Gene, 2010",0.0 % of WT
same,cAMP Emax - Ligand no.3,"[1]; MC4R S36T, COS-7 cell line, ref Hughes DA, Hum Genet, 2009",88.0 % of WT
same,cAMP Emax - Ligand no.3,"[1]; MC4R T11A, ref Tao YX, J Clin Endocrinol Metab, 2005",109.0 % of WT
same,cAMP Emax - Ligand no.3,"[1]; MC4R T246DfsX41, HEK293, ref Ho G, J Biol Chem, 1999",0.0 % of WT
same,cAMP Emax - Ligand no.3,"[1]; MC4R VADML88_92del, ref Donohoue PA, J Clin Endocrinol Metab, 2003",0.0 % of WT
same,cAMP Emax - Ligand no.3,"[1]; MC4R W16X, COS-7, ref Bolze F, Pharmacogenomics J, 2013",20.0 % of WT
same,cAMP Emax - Ligand no.3,"[1]; MC4R Y35C, ref Rong R, Clin Endocrinol, 2006",105.0 % of WT
same,cAMP Emax - Ligand no.3,"[1]; MC4R Y35X, ref Xiang Z, Biochemistry, 2006",0.0 % of WT
same,Binding Bmax (% of WT),"[2]; MC4R A303P, ref Hohenadel MG, Int J Obes, 2014",22.4 % of WT
same,Binding Bmax (% of WT),"[2]; MC4R A303T, ref Tan K, Endocrinology, 2009",86.6 % of WT
same,Binding Bmax (% of WT),"[2]; MC4R C84R, HEK293 cell line, ref Huang H, Int J Biol Sci, 2014",5.0 % of WT
same,Binding Bmax (% of WT),"[2]; MC4R C84R, ref Fan ZC, J Cell Mol Med, 2009",0.0 % of WT
same,Binding Bmax (% of WT),"[2]; MC4R C271Y, HEK293 cell line, ref Huang H, Int J Biol Sci, 2014",70.0 % of WT
same,Binding Bmax (% of WT),"[2]; MC4R C271Y, ref Tao YX, Endocrinology, 2003",0.0 % of WT
same,Binding Bmax (% of WT),"[2]; MC4R C271Y, ref Xiang Z, Biochemistry, 2006",6.7 % of WT
same,Binding Bmax (% of WT),"[2]; MC4R D90N, COS-7 cell line, ref Biebermann H, Diabetes, 2003",80.0 % of WT
same,Binding Bmax (% of WT),"[2]; MC4R D90N, ref Xiang Z, Biochemistry, 2010",108.1 % of WT
same,Binding Bmax (% of WT),"[2]; MC4R E61K, ref Tan K, Endocrinology, 2009",39.6 % of WT
same,Binding Bmax (% of WT),"[2]; MC4R E61K, ref Xiang Z, Biochemistry, 2010",2.0 % of WT
same,Binding Bmax (% of WT),"[2]; MC4R E308K, ref Xiang Z, Biochemistry, 2010",37.8 % of WT
same,Binding Bmax (% of WT),"[2]; MC4R F51L, ref Tao YX, J Clin Endocrinol Metab, 2005",108.0 % of WT
same,Binding Bmax (% of WT),"[2]; MC4R F51L, ref Xiang Z, Biochemistry, 2010",113.5 % of WT
same,Binding Bmax (% of WT),"[2]; MC4R G55D, ref Tan K, Endocrinology, 2009",68.6 % of WT
same,Binding Bmax (% of WT),"[2]; MC4R G55V, ref Hohenadel MG, Int J Obes, 2014",55.4 % of WT
same,Binding Bmax (% of WT),"[2]; MC4R G55V, ref Tan K, Endocrinology, 2009",128.5 % of WT
same,Binding Bmax (% of WT),"[2]; MC4R G98R, HEK293 cell line, ref Huang H, Int J Biol Sci, 2014",0.0 % of WT
same,Binding Bmax (% of WT),"[2]; MC4R G98R, ref Xiang Z, Biochemistry, 2010",0.541 % of WT
same,Binding Bmax (% of WT),"[2]; MC4R I69R, HEK293 cell line, ref Huang H, Int J Biol Sci, 2014",0.0 % of WT
same,Binding Bmax (% of WT),"[2]; MC4R I69T, ref Tan K, Endocrinology, 2009",24.8 % of WT
same,Binding Bmax (% of WT),"[2]; MC4R I69T, ref Xiang Z, Biochemistry, 2010",8.1 % of WT
same,Binding Bmax (% of WT),"[2]; MC4R I102S, ref Roubert P, J Endocrinol, 2010",23.5 % of WT
same,Binding Bmax (% of WT),"[2]; MC4R I102S, ref Tao YX, J Clin Endocrinol Metab, 2005",0.0 % of WT
same,Binding Bmax (% of WT),"[2]; MC4R I102S, ref Xiang Z, Biochemistry, 2006",1.6 % of WT
same,Binding Bmax (% of WT),"[2]; MC4R I102T, ref Larsen LH, J Clin Endocrinol Metab, 2005",115.0 % of WT
same,Binding Bmax (% of WT),"[2]; MC4R I102T, ref Roubert P, J Endocrinol, 2010",51.0 % of WT
same,Binding Bmax (% of WT),"[2]; MC4R I102T, ref Tao YX, J Clin Endocrinol Metab, 2005",20.0 % of WT
same,Binding Bmax (% of WT),"[2]; MC4R I301T, ref Nijenhuis WA, J Biol Chem, 2003",10.0 % of WT
